Laboratory results: US8815266B2, “Peptide derivatives useful in the treatment, care or cleansing of the skin, mucosae, scalp or nails” (Lipotech, S.A., priority 2008, dated 2014)
Non-standard residues stand in square brackets, D forms with d. *: point of attachment. Palmitoyl = CCCCCCCCCCCCCCCC(=O)*; Ahx = NCCCCCC(=O)O

What was measured:
hBD2 promoter = assay: Activation of the hBD2 promoter (luciferase activity assay) in a stable A549 cell line; format: cell-based, human
Protocol: Assay of activation of the hBD2 promoter in a stable cell line by the compounds of general formula (I) obtained in Example 5.
The A549 human epithelial cell line was cultured using RPMI-1640 medium supplemented with FBS and Penicillin-Streptomycin. It was routinely cultured by dividing the cultures twice a week at a 1:10 dilution using Trypsin-EDTA. 10^6 cells of the A549 line were seeded in a 60 mm disc treated with polylysine. After 24 h they were cotransfected with 10 μg of a gene construct formed by the hBD2 gene promoter followed by the luciferase protein gene (pGL3-hBD2promotor-Luc), and the pcDNA3B plasmid DNA containing the geneticin antibiotic resistance gene, at a 1:5 pcDNA3B.1/pGL3-hBD2promotor-Luc ratio. 25 μL of Lipofectamine™ 2000 were used for the transfection. After 24 h the selection was started with complete medium supplemented with the G418-Geneticin® antibiotic, the selection medium being renewed every 2 days. Different clones were isolated, which were characterized and selected based on the luciferase activity.
The selected stable lines were cultured using complete medium for the parental line supplemented with G418. They were routinely cultured by dividing the cultures twice a week at a 1:10 dilution using Trypsin-EDTA.
The capacity to activate the hBD2 promoter was determined by means of the luciferase activity assay since a transcriptional agent inducing hBD2 synthesis causes luciferase enzyme production by means of activating the hBD2 gene promoter contained in the pGL3-hBD2promotor-Luc construct, a luminescence increase being observed. The selected stable cell lines were seeded at 20,000 cells per plate. After 24 h the plates were washed and incubated for 24 h in modified RPMI-1640 medium without L-Isoleucine with different peptide derivatives at a concentration of 0.5 mM. LPS (100 μg/mL) and L-Isoleucine (25 μg/mL) were used as positive controls with the same treatment as the peptide derivatives. Once the incubation period had ended, the Steady-Glo Luciferase Assay System reagent (Promega Corp.) was added to the cells, following the protocol of the commercial company. The luminescent signal (ULAs/s) produced by the reaction between the luciferase and its substrate was quantified with a LUMIstar Galaxy plate luminometer (BMG Labtechnologies). Based on the values of luciferase activity (ULAs/s), standardized with the negative controls, the activation of the hBD2 promoter was determined.

hBD2 mRNA = assay: Quantification of hBD2 mRNA in human keratinocytes by real-time quantitative RT-PCR; format: cell-based; conditions: 16 h-24 h
Protocol: Quantification of the hBD2 mRNA secreted in human keratinocytes after incubation with Ac-L-Glu-L-Met-L-Ala-L-Ile-OH (Ac-SEQ ID No. 3-OH), Ac-L-Arg-Phg-Phg-OH and Ac-L-Arg-Ahx-L-Ala-OH.
(§1) The quantification of the amount of mRNA secreted was carried out by means of a real-time quantitative RT-PCR assay. 3×10^6 cells of a human keratinocyte line were used, seeded in 25 cm^2 flasks. The cells were washed and incubated for 16 h-24 h with different peptide derivatives at a concentration of 1 mm or 0.25 mm in a volume of 3 mL of DMEM medium. LPS (100 μg/mL) and L-Ile (200 μg/mL) were used as positive controls. The supernatants of the cells were stored at −80° C., to analyze the secreted hBD2 protein level and the total RNA was extracted from the cells with the RNeasy kit (Quiagen) following the protocol of the commercial company.
A retrotranscription reaction was carried out in a Mastercycler thermal cycler from 1 μg of total RNA of each sample, using the GeneAmp RNA PCR kit (Applied Biosystems) according to the protocol of the commercial company, and subsequently a real-time PCR was carried out by means of the assay with the SYBR Green I fluorophore in an ABI PRIS M 7700 Sequence Detector (Applied Biosystems).
The amount of mRNA was quantified by standardizing normalizing it with respect to the values of endogenous 18S ribosomal RNA. These values were in turn standardized with respect to the untreated cells and they were represented as the relative hBD2 mRNA level.

hBD2 = assay: Quantification of hBD2 secreted by human keratinocytes by ELISA; format: cell-based
Protocol: as §1
Quantification of the hBD2 secreted in human keratinocytes after incubation with Ac-L-Glu-L-Met-L-Ala-L-Ile-OH (Ac-SEQ ID No. 3-OH), Ac-L-Arg-Phg-Phg-OH and Ac-L-Arg-Ahx-L-Ala-OH.
The amount of hBD2 secreted by human keratinocytes was quantified by means of an ELISA assay using the Human BD-2 ELISA Development commercial kit (Peprotech) from the supernatants of the cells coming from Example 15.
Based on the absorbance data obtained, the hBD2 protein level was calculated after the calibration with recombinant hBD2. The values of hBD2 obtained were standardized with respect to the values of the control assays (untreated cells).

[1] = peptide derivative 0.5 mM, 24 h incubation, A549 pGL3-hBD2promotor-Luc stable line, standardized with negative controls (CONTROL 100%)
[2] = 0.25 mM peptide, normalized to 18S rRNA and untreated cells (CONTROL 100%)
[3] = 0.25 mm peptide, supernatants of human keratinocytes from Example 15, standardized to untreated cells (CONTROL 100%)

Molecule | LUMINESCENCE INCREASE (hBD2 promoter; [1]) | Relative hBD2 mRNA level (hBD2 mRNA; [2]) | Relative hBD2 level (hBD2; [3]) | other results
Palm-L-Glu-L-Met-L-Ala-L-Ile-NH2 (Palmitoyl-EMAI-NH2; SMILES CCCCCCCCCCCCCCCC(=O)N[C@@H](CCC(=O)O)C(=O)N[C@@H](CCSC)C(=O)N[C@@H](C)C(=O)N[C@H](C(N)=O)[C@@H](C)CC) | 137% | – | – | –
H-L-Glu-L-Met-L-Ala-L-Ile-OH (H-EMAI-OH) | 125% | – | – | –
CC[C@H](C)[C@H](N)C(=O)O [L-Ile, L-Isoleucine, reference compound] | – | – | – | LUMINESCENCE INCREASE (hBD2 promoter; positive control L-Isoleucine 25 μg/mL, 24 h, A549 stable line, CONTROL 100%): 127%; Relative hBD2 mRNA level (hBD2 mRNA; positive control L-Ile 200 μg/mL, CONTROL 100%): 125%; Relative hBD2 level (hBD2; positive control L-Ile 200 μg/mL, keratinocyte supernatants, CONTROL 100%): 134%
Ac-Arg-[Ahx]-Ala-OH | 137% | 126% | 126% | –
Ac-L-Arg-Phg-Phg-OH | 120% | 201% | 116% | –
Ac-L-Glu-L-Met-L-Ala-L-Ile-OH (Ac-EMAI-OH) | 196% | – | – | Relative hBD2 mRNA level (hBD2 mRNA; 1 mm peptide, normalized to 18S rRNA and untreated cells (CONTROL 100%)): 323%; Relative hBD2 level (hBD2; 1 mm peptide, supernatants of human keratinocytes from Example 15, standardized to untreated cells (CONTROL 100%)): 129%
